Measured values as given in patent publication US20260258054A1, “SMALL MOLECULE FOR TREATMENT OF CANCER OF THE APPENDIX” (The Regents of the University of California, priority 2022, published 2026).
Entries after “also recorded” stand apart in the source; their conditions may differ.

What was measured:
[1] = tested on: SNU-175 (GNAS^R201C CRC cell line); assay: cAMP-Glo assay, SNU-175 cells; assay type: cell-based, human
Method: (§1) A study was conducted to examine the effect of compound GE3 as a Gαs Inhibitor. Cells were treated with compound GE3 at high (1-5 mM) and low (0-0.5 mM) doses for 20 hours. cAMP levels were measured using the CAMP-Glo™ Assay (Promega). An isogenic paired cell line was created by using CRISPR-Cas9 to knockout (KO) GNAS from the SNU-175 cell line; this model system has been previously described (Oncogene. 2022 August; 41(35):4159-4168).
(§2) The same experimental system was used as above to test lower doses of GE3.

GNAS KO SNU-175 = assay: Incucyte viability (confluence), GNAS KO SNU-175 cells; assay type: cell-based, human
Method: (§3) Viability was measured over time but determining cell confluence in experimental well using Incucyte Live-Cell Analysis system (Sartorius). JVS-324 was added in increasing concentrations and cell growth monitored for 72 hours. Confluency evaluation was normalized time point zero. An isogenic paired cell line was created by using CRISPR-Cas9 to knockout (KO) GNAS from the SNU-175 cell line; this model system has been previously described (Oncogene. 2022 August; 41 (35):4159-4168).
(§4) Viability was measured over time but determining cell confluence in experimental well using Incucyte Live-Cell Analysis system (Sartorius); two experiments performed. […] (FIG. 26).

[2] = tested on: SNU-175 cells (GNAS^R201C); assay: Incucyte viability (confluence), SNU-175 cells; assay type: cell-based, human
Method: as §3, §4

[3] = tested on: GNAS KO isogenic paired cell line of SNU-175; assay: cAMP-Glo assay, GNAS KO SNU-175 cells; assay type: cell-based, human; conditions: mM doses (1-5 mM), 20 hours
Method: as §1, §2

[4] = tested on: KM12 GNAS^352delG organoids; assay: 3D organoid growth, KM12 GNAS knockout (GNAS^352delG) organoids; assay type: cell-based, human; conditions: supplementation of organoid cultures with conditioned medium
Method: (§5) FIGS. 4A-4C: GNAS signals through the CAMP-PKA axis. (FIG. 4A), KM12 GNAS^R201H and GNAS^352delG cells were treated with forskolin (0-250 μM) for 15 min. Following the treatment, cells were lysed, and cAMP levels were measured as described in the methods. (FIG. 4B), LS174T GNAS^R201H cells were treated with and without doxycycline, and cAMP levels measured after induction with forskolin (0-2.5 μM) for 15 min. (FIG. 4C), KM12 GNAS^R201H and GNAS^352delG organoids were grown in 3D-matrigel domes and treated with the PKA inhibitor H-89 (60 μM) for 10 days.
FIGS. 5A-5F: β-catenin is a downstream mediator of mutant GNAS signaling. (FIG. 5A), Top 10 hallmark genesets from the KM12 GNAS^KO-pool and LS174T GNAS overexpression datasets were selected and overlapping genesets were plotted. (FIG. 5B), Ratio of pT41/S45 phosphoβ-catenin/β-catenin based on the RPPA analysis results. (FIG. 5C), Immunohistochemistry (IHC) staining of β-catenin in LS174T dox (−) and dox (+) tissues from intraperitoneal mouse tumors. (FIG. 5D), Quantification of IHC tumors showing % of cells staining positive of β-catenin. (FIG. 5E), Quantification of the cytoplasmic and nuclear distribution of β-catenin based on IHC staining. (FIG. 5F), Effect of LF3 (β-catenin inhibitor) on the growth of KM12 (GNAS^R201H and GNAS^352delG) organoids. DMSO (0.2%) was used as control treatment and organoids were cultured for 10 days.
FIGS. 9A-9B: Wnt stimulation rescued growth of GNAS knockout organoids. (FIG. 9A), 3D growth of KM12 GNAS knockout organoids after supplementation with Wnt3a or R-spondin conditioned medium. (FIG. 9B), Quantification of growth by measuring total colony area (%).
(§6) KM12 and LS174T cells were suspended with Matrigel (BD) at 100 cells/μL and plated as 5 μL droplets onto 96-well multi-well culture plates. The plates were incubated at 37° C. for 15 min. […] The plates were placed in the cell imaging multi-mode plate reader Cytation™ 5 (Biotek, Winooski, VT) at 37° C. in an atmosphere supplemented with 5% CO2. […] The numbers and total area of organoids were calculated.

LS174T GNAS^R201H cells = assay: cAMP levels, LS174T cells overexpressing GNAS^R201H; assay type: cell-based, human; conditions: forskolin 0-2.5 μM, 15 min; doxycycline induced
Method: as §5

MEK regulated genes = assay: RNAseq analysis of post-treatment samples from trial NCT03108131 in appendiceal cancer; assay type: in vivo; conditions: cobimetinib with atezolizumab, three post-treatment samples
[5] = tested on: KM12 GNAS^R201H organoids; assay: 3D organoid growth, KM12 GNAS^R201H organoids; assay type: cell-based, human; conditions: H-89 60 μM, 10 days, vs. DMSO control, p=0.004
Method: as §5
FIGS. 5A-5F: β-catenin is a downstream mediator of mutant GNAS signaling. (FIG. 5A), Top 10 hallmark genesets from the KM12 GNAS^KO-pool and LS174T GNAS overexpression datasets were selected and overlapping genesets were plotted. […] (FIG. 5D), Quantification of IHC tumors showing % of cells staining positive of β-catenin. (FIG. 5E), Quantification of the cytoplasmic and nuclear distribution of β-catenin based on IHC staining. […]
as §6, with “plates.” for “plates. The plates were incubated at 37° C. for 15 min.”

CCC(CC)COC(=O)[C@H](C)NP(=O)(OC[C@H]1O[C@@H](n2cnc3c(=O)[nH]c(N)nc32)[C@@H]2O[C@@H]21)Oc1ccccc1 (stereo partly drawn) [GE3]
potency relative to JVS-324 (cAMP) [1]: significantly more potent | dose by which cAMP level was comparable to the level in the KO cells ([1]; 20 hours): 0.01 mM | cAMP levels ([1]; lower doses (0-0.5 mM), 20 hours): dose-dependent fashion; also recorded: inhibits cAMP production | cAMP levels ([1]; mM doses (1-5 mM), 20 hours): significantly reduced CAMP; also recorded: inhibits cAMP production | cell growth (GNAS KO SNU-175; GE3 at mM doses): significantly reduced growth | cell growth (GNAS KO SNU-175; GE3 by 1 mM): essentially no growth | dose by which growth was comparable to the level in the KO cells [2]: 0.01 mM | cell growth / viability ([2]; GE3, lower doses): dose-dependent fashion; also recorded: decreased viability | cell growth ([2]; GE3 at mM doses): significantly reduced growth | cell growth ([2]; GE3 by 1 mM): essentially no growth | IC50 ([2]; Homo sapiens, read-out: IC50 in viability assay): 105 µM | cAMP levels [3]: significantly reduced CAMP

Wnt3a
rescue of organoid growth of GNAS-knockout cells [4]: rescued organoid growth | rescue of organoid growth of GNAS-knockout cells ([4]; listed as WNT3A): can be rescued | rescue of organoid growth of GNAS-knockout cells ([4]; listed as Wnt3A): rescue GNAS knockout

C=C[C@@]1(C)CC(=O)[C@]2(O)[C@@]3(C)[C@@H](O)CCC(C)(C)[C@@H]3[C@H](O)[C@H](OC(C)=O)[C@@]2(C)O1 [forskolin]
effect of forskolin on basal levels of cAMP (LS174T GNAS^R201H cells): no effect

O=C(c1ccc(F)c(F)c1Nc1ccc(I)cc1F)N1CC(O)([C@@H]2CCCCN2)C1 [cobimetinib]
expression of MEK regulated genes (MEK regulated genes): not down regulated

O=S(=O)(NCCNC/C=C/c1ccc(Br)cc1)c1cccc2cnccc12 [Compound H-89]
reduced the growth of KM12 organoids [5]: 79%
